What is called Ki is the equilibrium dissociation constant of an inhibitor or competing ligand from its target. Read a high Ki as lower affinity.

Each structure is given as a SMILES string.

These results are taken from ChEMBL document CHEMBL1144939, “Modeling the adenosine receptors: comparison of the binding domains of A2A agonists and antagonists” (J Med Chem, 2003).

Experiment [1] concerns the target Adenosine receptor A2a (Homo sapiens, UniProt P29274, T88D). As to the kind of experiment: Binding affinity against T88D human adenosine A2A receptor expressed in CHO cells using [3H]- ZM-241385. The experiment is classed as cell-based.
The target in experiment [2] is Adenosine receptor A2a (Homo sapiens, UniProt P29274). Put plainly: biochemical.
Description: Binding affinity against WT human adenosine A2A receptor expressed in CHO cells using [3H]- ZM-241385
The target of experiment [3] is Adenosine receptor A2a (Homo sapiens, UniProt P29274, H278E). As to the kind of experiment: biochemical.
The target in experiment [4] is Adenosine receptor A2a (Homo sapiens, UniProt P29274, Q89D). As to the kind of experiment: biochemical.
Experiment [5] has as its target Adenosine receptor A2a (Homo sapiens, UniProt P29274, H278D). As to the kind of experiment: biochemical.
Experiment [6] addresses Adenosine receptor A2a (Homo sapiens, UniProt P29274, T88E). As to the kind of experiment: Binding affinity against T88E human adenosine A2A receptor expressed in CHO cells using [3H]- ZM-241385. The experiment is classed as cell-based.
For experiment [7], the target named is Adenosine receptor A2a (Homo sapiens, UniProt P29274, S277E). As to the kind of experiment: biochemical.
The target of experiment [8] is Adenosine receptors; A1 & A2a (Homo sapiens) (UniProt P30542+P29274). Put plainly: Selectivity ratio for binding to human adenosine A1 and A2A receptors. The experiment is classed as protein assay.

Sequence of Adenosine receptor A2a (Homo sapiens, UniProt P29274, T88E) (P29274 whole entry T88E): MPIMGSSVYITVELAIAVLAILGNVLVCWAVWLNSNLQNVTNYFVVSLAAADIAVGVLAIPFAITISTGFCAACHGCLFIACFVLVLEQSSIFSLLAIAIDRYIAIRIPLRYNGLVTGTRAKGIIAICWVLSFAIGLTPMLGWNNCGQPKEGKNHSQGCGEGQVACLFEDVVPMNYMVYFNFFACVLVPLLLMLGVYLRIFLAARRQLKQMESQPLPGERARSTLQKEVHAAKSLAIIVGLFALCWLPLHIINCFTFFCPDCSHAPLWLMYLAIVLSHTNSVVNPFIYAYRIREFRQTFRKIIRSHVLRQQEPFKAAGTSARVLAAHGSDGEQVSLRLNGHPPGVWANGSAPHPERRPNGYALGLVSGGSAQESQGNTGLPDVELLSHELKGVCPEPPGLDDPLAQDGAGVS
Sequence of Adenosine receptor A2a (Homo sapiens, UniProt P29274) (P29274 whole entry): as the sequence (P29274 whole entry T88E) above, with E88T counted along it
Sequence of Adenosine receptor A2a (Homo sapiens, UniProt P29274, Q89D) (P29274 whole entry Q89D): as the sequence (P29274 whole entry T88E) above, with E88T, Q89D counted along it
Sequence of Adenosine receptor A2a (Homo sapiens, UniProt P29274, S277E) (P29274 whole entry S277E): as the sequence (P29274 whole entry T88E) above, with E88T, S277E counted along it
Sequence of Adenosine receptor A2a (Homo sapiens, UniProt P29274, T88D) (P29274 whole entry T88D): as the sequence (P29274 whole entry T88E) above, with E88D counted along it
Sequence of Adenosine receptor A2a (Homo sapiens, UniProt P29274, H278E) (P29274 whole entry H278E): as the sequence (P29274 whole entry T88E) above, with E88T, H278E counted along it
Sequence of Adenosine receptor A2a (Homo sapiens, UniProt P29274, H278D) (P29274 whole entry H278D): as the sequence (P29274 whole entry T88E) above, with E88T, H278D counted along it

Consider `N[C@H]1[C@@H](O)[C@H](n2cnc3c(NCc4cccc(I)c4)ncnc32)O[C@@H]1CO`, for which the Ki at Adenosine receptor A2a [1] amounted to 18 µM; on Adenosine receptor A2a [2], 0.067 µM; at Adenosine receptor A2a [3] it was 64 µM; on Adenosine receptor A2a [4], 6.4 µM; on Adenosine receptor A2a [5], 87 µM; on Adenosine receptor A2a [6], 57 µM. On Adenosine receptor A2a [7], this compound gave a Ki of 88 µM.

With `NC[C@H]1[C@@H](O)[C@H](n2cnc3c(NCc4cccc(I)c4)ncnc32)O[C@@H]1CO`, the Ki on Adenosine receptor A2a [1] was found to be 6.5 µM; at Adenosine receptor A2a [2], 0.079 µM; on Adenosine receptor A2a [3], 56 µM; on Adenosine receptor A2a [4] it was 58 µM; on Adenosine receptor A2a [5], 59 µM; on Adenosine receptor A2a [6], 64 µM. On Adenosine receptor A2a [7], this compound gave a Ki of 67 µM.

Turning to `Nc1ccc(CCCn2ncc3c2nc(N)n2nc(-c4ccco4)nc32)cc1`, in experiment [8], the Ratio turned out to be 9820.

As to `NC[C@H]1O[C@@H](n2cnc3c(N)ncnc32)[C@H](O)[C@@H]1O`, the Ki was 407 µM at Adenosine receptor A2a [1]; 0.534 µM at Adenosine receptor A2a [2]; 52 µM on Adenosine receptor A2a [4]; 492 µM at Adenosine receptor A2a [6]; 604 µM at Adenosine receptor A2a [7].
